According to patent publication US11090305B2, “Methods and compositions to reduce oxidative stress” (University of Massachusetts, priority 2009, dated 2021):

Assays:
[1] = system: HSCs from hypercholesterolemic mice; assay: H2O2 in lysates from freshly harvested HSCs; design: species or system mouse; settings: ApoE and HCD mice, in vivo treatment
Description: HSCs were purified from bone marrow mononuclear cells by multi-parameter FACS sorting using the surface phenotype cKit^+Sca-1^+CD90.1^lowLin^−. A greater percentage of HSCs from ApoE^−/− and HCD mice stain with 2′,7′-dichlorofluorescein diacetate than WT KSL cells, indicating a higher oxidant level in cells from hypercholesterolemic mice. Two additional assays were carried out that confirmed this earlier finding: first, the level of H2O2 in HSC cell lysates, determined by spectrophotometry, was greater in ApoE^−/− and HCD mice than in WT mice (FIG. 42A).

db/db MSC [2] = assay: Differentiation of db/db MSC towards endothelial cells (CD31 staining); format: cell-based, mouse; settings: endogenic medium
Description: Endothelial cells were identified by CD31 staining. m±sd, n=4, *P<0.05.
Adipocytes were identified by Oil Red O staining. m±sd, n=4, *p<0.05 vs control. […] Endothelial cells were identified by CD31 staining. m±sd, n=4, *p<0.05 vs control, #p<0.05 vs 5 nM.

[3] = system: p19^Arf, p21^Waf1, and p27^Kip1; assay: RT-PCR expression of p19^Arf, p21^Waf1, p27^Kip1 in HSCs; format: in vivo, mouse; settings: ApoE^−/− mice, in vivo treatment
Description: The expression of p15^Ink4b, p16^Ink4a, p18^Ink4c, p19^ARF, P21^Waf1, and p27^Kip1 was determined using RT-PCR, a more sensitive and quantitative assay, in ApoE^−/− and WT HSCs.

db/db MSC [4] = assay: Basal protein expression in db/db MSC (western blot); format: cell-based, mouse
[5] = system: hypercholesterolemic mice (ApoE^−/−, HCD); assay: Azoxymethane (AOM)-induced colorectal neoplasia; design: species or system mouse; settings: in vivo pretreatment
From the text: All mice were purchased from Jackson Laboratories (Bar Harbor, Me.) and were maintained in the mouse barrier facility. Care of mice was in accordance with NIH guidelines and the Institutional Animal Care and Use Committee of the University of Massachusetts Medical School approved all protocols. Mice were kept on a 12 hr day/night schedule and were allowed free access to chow and water. ApoE^−/− and WT mice were fed standard mouse chow (5.4 g fat/100 g diet, 0% cholesterol). HCD mice were fed a diet with 10 g fat/100 g diet, […] (Research Diets, New Brunswick, N.J.). […] Azoxymethane (AOM) was given by intraperitoneal injection (10 mg/Kg weekly for 3 weeks); 1% dextran sodium sulfate was added to the drinking water for the Pt week after AOM treatment. The colon and rectum was removed en bloc from each mouse and the number of polyps was identified using a dissecting microscope. Each polyp was frozen in OCT at −80° C. and cryosections (10 μM) cut. […] (A) Total serum cholesterol measured under fasting conditions (16 hr) was greater in ApoE^−/− and HCD groups than in the WT group. […] Ten weeks later, the incidence and number of polyps were determined in the colon and rectum, and a pathologist blinded to study condition assigned each polyp a histological grade (hyperplasia, grade 1, 2, or 3 adenoma, or carcinoma). […]

NKT and γδT cells = assay: NKT and γδT cell populations (flow cytometry, immunostaining); format: in vivo, mouse; settings: hypercholesterolemic mice, 4 weeks
From the text: All mice were purchased from Jackson Laboratories (Bar Harbor, Me.) and were maintained in the mouse barrier facility. Care of mice was in accordance with NIH guidelines and the Institutional Animal Care and Use Committee of the University of Massachusetts Medical School approved all protocols. Mice were kept on a 12 hr day/night schedule and were allowed free access to chow and water. ApoE^−/− and WT mice were fed standard mouse chow (5.4 g fat/100 g diet, 0% cholesterol). HCD mice were fed a diet with 10 g fat/100 g diet, […] (Research Diets, New Brunswick, N.J.). […] Azoxymethane (AOM) was given by intraperitoneal injection (10 mg/Kg weekly for 3 weeks); 1% dextran sodium sulfate was added to the drinking water for the Pt week after AOM treatment.
Cells were stained with monoclonal antibodies conjugated to various fluoroprobes. These antibodies included: Notch1, cKit (2B8), Sca-1 (E13-161.7), CD4 (L3T4), CD8 (53-6.72), CD90.1, CD25, CD44, TCRβ, NK1.1, γδTCR, CD45.1, CD45.2. The lineage cocktail consisted of CD4, CD8, B220 (RA3-6B2), TER-119, Mac-1 (MI/70), and Gr-1 (RB6-8C5). All antibodies were purchased from BD Bioscience (San Diego, Calif.). FACS analysis was carried out on a FACS Diva.
The colon and rectum was removed en bloc from each mouse and the number of polyps was identified using a dissecting microscope. Each polyp was frozen in OCT at −80° C. and cryosections (10 μM) cut. H&E staining was used to identify the histological grade of each polyp, assigned by a pathologist blinded to study condition. Standard immunostaining protocol was used to identify γδT cells (monoclonal antibody to γδTCR, DAPI counterstaining) and NKT cells (monoclonal antibodies to TCR and NK1.1, DAPI counterstaining). Sections were viewed with a Zeiss immunofluorescent microscope and Axiovert software.

For `CC(=O)N[C@@H](CS)C(=O)O` [NAC, N-acetylcysteine], the “H2O2 in HSC lysates” value [1] was “significantly decreased by in vivo NAC treatment”, the “differentiation towards endothelial cells” value (db/db MSC [2]) was “increased differentiation towards endothelial cells” and the “HSC expression of p19^Arf, p21^Waf1, and p27^Kip1” value [3] was “fully reversed these increases”. For the same compound, the eNOS expression (db/db MSC [4]) was “no change in eNOS expression”, the phospho-eNOS expression (db/db MSC [4]) was “increased phospho-eNOS expression” and the PPARγ expression (db/db MSC [4]; basal) was “reduced basal PPARγ expression”. For the same compound, the “histological severity of AOM-induced colorectal polyps” value ([5]; ApoE^−/− and HCD mice) was “these effects were reversed by in vivo pretreatment with NAC”, the “susceptibility to AOM-induced neoplasia” value ([5]; hypercholesterolemic mice) was “reduced susceptibility to AOM-induced neoplasia” and the “colonic resident populations of NKT and γδT cells” value (NKT and γδT cells; healthy colon) was “restored the colonic resident populations of NKT and γδT cells to WT levels”. For the same compound, the “numbers of NKT and γδT cells in AOM-induced polyps” value (NKT and γδT cells) was “significantly increased the numbers of NKT and γδT cells in all grades of AOM-induced polyps” and the “percentages of γδT cells and NKT cells in the thymus and peripheral blood” value (NKT and γδT cells) was “reversed by in vivo treatment with NAC for 4 weeks”.
